Publication PMC3605653 (The Journal of Biological Chemistry, 2013)

Key:
[1] = molecular target: T1, ELIC (Erwinia chrysanthemi ligand-gated ion channel) (Dickeya chrysanthemi, UniProt P0C7B7); assay: two-electrode voltage clamp, Xenopus oocytes; type: cell-based
T1 sequence (P0C7B7 1-321): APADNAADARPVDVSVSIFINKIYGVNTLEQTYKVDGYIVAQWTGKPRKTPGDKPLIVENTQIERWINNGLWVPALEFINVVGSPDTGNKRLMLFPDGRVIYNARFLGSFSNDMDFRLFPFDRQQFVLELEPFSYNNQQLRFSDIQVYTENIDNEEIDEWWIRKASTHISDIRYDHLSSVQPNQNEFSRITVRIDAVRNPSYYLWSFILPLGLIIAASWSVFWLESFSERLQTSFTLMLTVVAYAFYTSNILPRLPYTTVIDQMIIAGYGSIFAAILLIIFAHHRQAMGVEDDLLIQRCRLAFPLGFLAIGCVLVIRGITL

[2] = molecular target: ELIC (Erwinia chrysanthemi ligand-gated ion channel) (Dickeya chrysanthemi, UniProt P0C7B7, F273A/L239S); assay: cell-based; settings: read-out: remaining EC20 current (%) at 200 μM
[3] = molecular target: ELIC (Erwinia chrysanthemi ligand-gated ion channel) (Dickeya chrysanthemi, UniProt P0C7B7, L239S/W223A); assay: cell-based; settings: read-out: remaining EC20 current (%) at 200 μM
[4] = molecular target: T1, ELIC (Erwinia chrysanthemi ligand-gated ion channel); assay: two-electrode voltage clamp, Xenopus oocytes; type: cell-based; settings: agonist; pH 7.4, 18 °C, -60 mV; concentration used as EC20

Row | EC20 [4] | Structure (SMILES) | IC50 [1] | remaining activity at 200 µM [2] | remaining activity at 200 µM [3]
1 |  | ClC(Cl)Cl [chloroform] | 162 ± 26 µM |  | 
2 |  | BrC(Br)Br [bromoform] | 125 ± 10 µM | 78 ± 4% | 81 ± 6%
3 | 3000 µM | NCCCC(=O)O [GABA] |  |  | 
